The values that follow are results of earlier work, collected in patent US20160287599A1, “SUBSTITUTED 1,2,4-TRIAZINE-3,5-DIONES AND THE USE THEREOF AS CHYMASE INHIBITORS” (BAYER PHARMA AKTIENGESELLSCHAFT, priority 2013, published 2016).

This data set has as its system chymase. Particulars: hamsters, myocardial infarction model.

On to `CCOc1ccccc1CC1C(=O)N(C(=O)NC(c2ccc(C)cc2)c2ccc(C)cc2)C1Oc1ccc(C(=O)O)cc1` (stereo not drawn) [BCEAB], for which the chymase activity result is “reduced”, the haemodynamics result is “improved” and the mortality result was “reduced”.
